From patent US10793556B2, “8-amino-2-oxo-1,3-diaza-spiro-[4.5]-decane derivatives” (Grünenthal GmbH, priority 2016, dated 2020)

Target: human mu-opioid peptide (hMOP) receptor (Homo sapiens (Human), UniProt P35372)
Assay: hMOP receptor binding assay (SPA, [3H]naloxone)

human mu-opioid peptide (hMOP) receptor, sequence (P35372 whole entry): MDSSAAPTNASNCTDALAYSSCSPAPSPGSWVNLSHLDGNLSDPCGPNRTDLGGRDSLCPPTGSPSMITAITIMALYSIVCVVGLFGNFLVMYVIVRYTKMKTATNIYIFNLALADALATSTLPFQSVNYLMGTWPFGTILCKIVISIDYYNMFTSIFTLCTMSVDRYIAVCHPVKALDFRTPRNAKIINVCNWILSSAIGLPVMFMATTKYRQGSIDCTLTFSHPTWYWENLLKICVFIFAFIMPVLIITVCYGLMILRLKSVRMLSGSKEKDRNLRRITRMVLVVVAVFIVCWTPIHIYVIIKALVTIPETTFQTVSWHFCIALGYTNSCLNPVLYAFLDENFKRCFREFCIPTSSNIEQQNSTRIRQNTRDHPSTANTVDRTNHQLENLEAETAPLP

## CN(C)[C@]1(c2ccccc2)CC[C@]2(CC1)CN(CC(C)(C)N1C(=O)CCC1=O)C(=O)N2CC1CC1 [SC_4084, CIS-1-[2-[1-(Cyclopropyl-methyl)-8-dimethylamino-2-oxo-8-phenyl-1,3-diazaspiro[4.5]decan-3-yl]-1,1-dimethyl-ethyl]-pyrrolidine-2,5-dione]
  Ki: 2470 nM
